Data taken from the kinase profiling compilation of Christmann-Franck et al. (2016).

Key:
Assay in all cases: radiometric filter-binding kinase assay, Kinase HotSpot
Conditions in all cases: compound 0.5 µM; ATP 10 µM
EPHA3 (human) = EPHA3 (human) (UniProt P29320)
PRKCI (human) = PRKCI (human) (UniProt P41743)
MINK1 (human) = MINK1 (human) (UniProt Q8N4C8)
RPS6KA3 KD1 KD2 (human) = RPS6KA3 KD1 KD2 (human) (UniProt P51812)
BRSK2 (human) = BRSK2 (human) (UniProt Q8IWQ3)
PNCK (human) = PNCK (human) (UniProt Q6P2M8)
EPHA2 (human) = EPHA2 (human) (UniProt P29317)
AURKB (human) = AURKB (human) (UniProt Q96GD4)
PIM3 (human) = PIM3 (human) (UniProt Q86V86)
WNK2 (human) = WNK2 (human) (UniProt Q9Y3S1)
LIMK1 (human) = LIMK1 (human) (UniProt P53667)
KDR (human) = KDR (human) (UniProt P35968)
WNK3 (human) = WNK3 (human) (UniProt Q9BYP7)
FRK (human) = FRK (human) (UniProt P42685)
PRKD1 (human) = PRKD1 (human) (UniProt Q15139)
NUAK1 (human) = NUAK1 (human) (UniProt O60285)
INSR (human) = INSR (human) (UniProt P06213)
CLK1 (human) = CLK1 (human) (UniProt P49759)
TGFBR2 (human) = TGFBR2 (human) (UniProt P37173)
MARK4 (human) = MARK4 (human) (UniProt Q96L34)
EPHA4 (human) = EPHA4 (human) (UniProt P54764)
BLK (human) = BLK (human) (UniProt P51451)
CDK2 CCNE1 (human) = CDK2 CCNE1 (human) (UniProt P24941+P24864)
MERTK (human) = MERTK (human) (UniProt Q12866)
SYK (human) = SYK (human) (UniProt P43405)
CAMKK1 (human) = CAMKK1 (human) (UniProt Q8N5S9)
GRK6 (human) = GRK6 (human) (UniProt P43250)
FGFR3 (human) = FGFR3 (human) (UniProt P22607)
CAMKK2 (human) = CAMKK2 (human) (UniProt Q96RR4)
DYRK4 (human) = DYRK4 (human) (UniProt Q9NR20)
EPHB1 (human) = EPHB1 (human) (UniProt P54762)
DYRK1A (human) = DYRK1A (human) (UniProt Q13627)
BMX (human) = BMX (human) (UniProt P51813)
MAPKAPK2 (human) = MAPKAPK2 (human) (UniProt P49137)
DCLK2 (human) = DCLK2 (human) (UniProt Q8N568)
ACVR1 (human) = ACVR1 (human) (UniProt Q04771)
FLT3 (human) = FLT3 (human) (UniProt P36888)
PAK4 (human) = PAK4 (human) (UniProt O96013)
MAP3K10 (human) = MAP3K10 (human) (UniProt Q02779)
PTK6 (human) = PTK6 (human) (UniProt Q13882)
NTRK2 (human) = NTRK2 (human) (UniProt Q16620)
PAK6 (human) = PAK6 (human) (UniProt Q9NQU5)
Sequence of PAK6 (human) (Q9NQU5 whole entry, looked up): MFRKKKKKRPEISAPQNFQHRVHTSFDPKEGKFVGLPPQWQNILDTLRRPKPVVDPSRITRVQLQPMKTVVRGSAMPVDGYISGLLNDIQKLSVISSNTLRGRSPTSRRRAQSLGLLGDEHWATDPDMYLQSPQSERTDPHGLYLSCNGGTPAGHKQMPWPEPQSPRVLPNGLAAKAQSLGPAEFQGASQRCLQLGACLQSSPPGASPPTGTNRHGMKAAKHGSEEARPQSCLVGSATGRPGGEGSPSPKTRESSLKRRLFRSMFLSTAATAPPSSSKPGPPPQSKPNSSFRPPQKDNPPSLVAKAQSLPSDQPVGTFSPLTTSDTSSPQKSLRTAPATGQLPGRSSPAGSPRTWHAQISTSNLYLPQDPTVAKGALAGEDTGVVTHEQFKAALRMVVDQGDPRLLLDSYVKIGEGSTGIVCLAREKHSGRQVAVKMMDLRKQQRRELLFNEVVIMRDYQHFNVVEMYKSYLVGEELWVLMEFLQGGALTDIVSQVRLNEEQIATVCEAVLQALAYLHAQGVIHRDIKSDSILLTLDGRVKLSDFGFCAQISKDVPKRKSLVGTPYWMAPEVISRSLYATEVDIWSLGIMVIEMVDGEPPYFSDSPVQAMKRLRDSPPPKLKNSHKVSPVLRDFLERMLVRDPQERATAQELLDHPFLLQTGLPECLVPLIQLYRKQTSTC

Sequence of PAK4 (human) (O96013 whole entry, looked up): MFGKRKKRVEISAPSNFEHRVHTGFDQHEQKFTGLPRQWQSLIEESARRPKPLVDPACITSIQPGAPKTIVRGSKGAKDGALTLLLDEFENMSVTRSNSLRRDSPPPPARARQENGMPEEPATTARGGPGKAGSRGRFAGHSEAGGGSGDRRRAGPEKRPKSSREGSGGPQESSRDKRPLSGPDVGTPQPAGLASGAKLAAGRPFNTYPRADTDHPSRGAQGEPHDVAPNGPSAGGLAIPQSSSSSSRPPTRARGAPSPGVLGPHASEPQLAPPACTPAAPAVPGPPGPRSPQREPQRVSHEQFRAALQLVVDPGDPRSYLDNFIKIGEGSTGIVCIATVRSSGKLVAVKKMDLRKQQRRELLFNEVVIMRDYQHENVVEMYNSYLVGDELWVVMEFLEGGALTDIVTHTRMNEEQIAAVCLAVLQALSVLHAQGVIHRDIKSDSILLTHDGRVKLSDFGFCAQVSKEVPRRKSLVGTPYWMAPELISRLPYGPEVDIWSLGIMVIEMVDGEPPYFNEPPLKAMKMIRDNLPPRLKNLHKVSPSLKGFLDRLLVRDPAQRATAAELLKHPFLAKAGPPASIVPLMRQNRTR
Sequence of EPHA3 (human) (P29320 whole entry, looked up): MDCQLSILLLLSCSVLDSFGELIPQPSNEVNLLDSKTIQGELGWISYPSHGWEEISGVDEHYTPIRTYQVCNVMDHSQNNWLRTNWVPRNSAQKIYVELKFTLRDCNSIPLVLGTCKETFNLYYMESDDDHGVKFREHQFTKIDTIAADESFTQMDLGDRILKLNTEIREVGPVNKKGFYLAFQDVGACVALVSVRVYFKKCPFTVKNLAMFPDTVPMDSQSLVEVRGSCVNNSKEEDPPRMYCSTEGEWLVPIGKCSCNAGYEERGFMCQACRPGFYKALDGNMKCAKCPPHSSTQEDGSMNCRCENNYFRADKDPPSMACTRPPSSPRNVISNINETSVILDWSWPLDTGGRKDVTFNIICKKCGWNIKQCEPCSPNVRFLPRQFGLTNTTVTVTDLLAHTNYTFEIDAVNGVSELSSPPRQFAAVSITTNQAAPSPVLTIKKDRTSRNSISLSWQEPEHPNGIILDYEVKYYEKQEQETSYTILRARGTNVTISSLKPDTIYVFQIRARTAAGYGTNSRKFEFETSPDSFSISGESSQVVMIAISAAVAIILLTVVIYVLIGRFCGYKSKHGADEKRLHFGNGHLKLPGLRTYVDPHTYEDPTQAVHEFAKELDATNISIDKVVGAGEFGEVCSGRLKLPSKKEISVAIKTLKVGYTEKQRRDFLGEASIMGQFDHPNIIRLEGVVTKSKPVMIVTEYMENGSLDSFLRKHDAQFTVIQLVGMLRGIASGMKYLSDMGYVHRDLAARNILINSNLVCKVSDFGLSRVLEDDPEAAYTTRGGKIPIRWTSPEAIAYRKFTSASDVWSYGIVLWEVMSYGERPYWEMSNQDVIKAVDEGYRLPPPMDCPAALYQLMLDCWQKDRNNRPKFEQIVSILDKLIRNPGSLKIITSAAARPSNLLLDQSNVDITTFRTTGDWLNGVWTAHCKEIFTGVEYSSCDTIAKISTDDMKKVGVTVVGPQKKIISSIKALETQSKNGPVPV
Sequence of CAMKK1 (human) (Q8N5S9 whole entry, looked up): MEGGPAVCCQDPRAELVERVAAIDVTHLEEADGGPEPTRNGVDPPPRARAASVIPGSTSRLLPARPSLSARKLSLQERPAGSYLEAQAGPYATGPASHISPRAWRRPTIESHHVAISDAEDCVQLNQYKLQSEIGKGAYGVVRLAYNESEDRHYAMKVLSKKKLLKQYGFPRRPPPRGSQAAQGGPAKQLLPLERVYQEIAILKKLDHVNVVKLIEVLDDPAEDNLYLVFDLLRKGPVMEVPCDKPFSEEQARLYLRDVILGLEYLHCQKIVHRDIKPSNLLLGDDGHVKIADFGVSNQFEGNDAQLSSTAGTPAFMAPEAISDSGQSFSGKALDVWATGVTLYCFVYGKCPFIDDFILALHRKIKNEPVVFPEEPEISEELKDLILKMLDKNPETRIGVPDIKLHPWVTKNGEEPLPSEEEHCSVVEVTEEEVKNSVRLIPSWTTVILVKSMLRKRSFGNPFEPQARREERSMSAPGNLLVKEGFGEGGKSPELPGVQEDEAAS
Sequence of NTRK2 (human) (Q16620 whole entry, looked up): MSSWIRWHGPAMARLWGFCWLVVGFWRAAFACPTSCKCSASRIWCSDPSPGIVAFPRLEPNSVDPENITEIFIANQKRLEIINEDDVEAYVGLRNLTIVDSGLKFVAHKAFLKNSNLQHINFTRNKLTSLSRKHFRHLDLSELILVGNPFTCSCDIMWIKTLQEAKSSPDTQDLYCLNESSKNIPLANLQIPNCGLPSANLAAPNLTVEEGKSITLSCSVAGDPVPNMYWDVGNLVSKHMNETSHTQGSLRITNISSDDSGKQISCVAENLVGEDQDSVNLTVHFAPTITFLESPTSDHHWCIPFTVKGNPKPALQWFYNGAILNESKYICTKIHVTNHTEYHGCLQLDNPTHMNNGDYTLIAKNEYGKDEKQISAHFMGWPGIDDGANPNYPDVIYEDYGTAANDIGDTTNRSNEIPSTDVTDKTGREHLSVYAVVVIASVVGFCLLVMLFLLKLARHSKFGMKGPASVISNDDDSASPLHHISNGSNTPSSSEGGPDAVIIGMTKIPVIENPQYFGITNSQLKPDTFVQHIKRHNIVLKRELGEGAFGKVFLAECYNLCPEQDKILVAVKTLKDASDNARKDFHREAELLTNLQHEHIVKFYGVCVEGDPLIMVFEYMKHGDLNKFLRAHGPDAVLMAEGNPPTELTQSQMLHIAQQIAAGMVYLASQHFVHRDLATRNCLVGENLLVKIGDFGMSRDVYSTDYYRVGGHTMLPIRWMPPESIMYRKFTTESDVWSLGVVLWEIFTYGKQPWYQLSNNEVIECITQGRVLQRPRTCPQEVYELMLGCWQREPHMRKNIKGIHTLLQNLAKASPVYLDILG
Sequence of RPS6KA3 KD1 KD2 (human) (P51812 whole entry, looked up): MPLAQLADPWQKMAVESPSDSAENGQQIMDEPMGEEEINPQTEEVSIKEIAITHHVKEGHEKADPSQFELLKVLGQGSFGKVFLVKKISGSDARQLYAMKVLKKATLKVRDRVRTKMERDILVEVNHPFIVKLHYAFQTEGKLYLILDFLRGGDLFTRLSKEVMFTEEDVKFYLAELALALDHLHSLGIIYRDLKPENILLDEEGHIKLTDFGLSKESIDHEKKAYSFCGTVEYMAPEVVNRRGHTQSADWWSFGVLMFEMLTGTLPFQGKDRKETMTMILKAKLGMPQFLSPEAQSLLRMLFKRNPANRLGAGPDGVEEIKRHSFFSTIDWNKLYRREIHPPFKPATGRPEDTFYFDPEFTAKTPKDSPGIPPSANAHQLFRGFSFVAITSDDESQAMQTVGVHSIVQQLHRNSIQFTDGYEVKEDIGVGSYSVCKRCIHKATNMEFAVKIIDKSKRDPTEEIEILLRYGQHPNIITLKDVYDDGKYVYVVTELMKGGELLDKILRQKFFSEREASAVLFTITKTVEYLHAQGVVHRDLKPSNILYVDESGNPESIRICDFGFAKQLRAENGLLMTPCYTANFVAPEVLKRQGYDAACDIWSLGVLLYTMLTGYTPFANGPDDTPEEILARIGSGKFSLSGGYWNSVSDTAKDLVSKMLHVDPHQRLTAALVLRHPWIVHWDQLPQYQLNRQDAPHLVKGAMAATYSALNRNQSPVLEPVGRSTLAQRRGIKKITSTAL
Sequence of TGFBR2 (human) (P37173 whole entry, looked up): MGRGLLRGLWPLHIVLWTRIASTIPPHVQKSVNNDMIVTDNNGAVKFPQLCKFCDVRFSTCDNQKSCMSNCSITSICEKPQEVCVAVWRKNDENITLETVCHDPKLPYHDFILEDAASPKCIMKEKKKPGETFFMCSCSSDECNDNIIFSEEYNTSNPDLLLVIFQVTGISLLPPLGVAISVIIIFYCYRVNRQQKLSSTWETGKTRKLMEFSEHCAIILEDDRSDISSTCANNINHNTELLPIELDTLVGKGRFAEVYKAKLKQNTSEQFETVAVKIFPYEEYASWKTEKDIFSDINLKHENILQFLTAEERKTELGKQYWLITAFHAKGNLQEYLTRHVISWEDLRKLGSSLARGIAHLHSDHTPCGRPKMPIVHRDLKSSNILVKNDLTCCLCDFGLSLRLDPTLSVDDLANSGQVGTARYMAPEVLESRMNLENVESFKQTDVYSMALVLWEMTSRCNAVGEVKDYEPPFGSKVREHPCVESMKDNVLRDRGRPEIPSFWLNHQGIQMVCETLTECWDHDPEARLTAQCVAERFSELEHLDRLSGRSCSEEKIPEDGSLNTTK

Oc1ccc(Nc2nc(-c3ccc(Cl)cc3)cs2)cc1
residual activity (EPHA3 (human)): 110%
residual activity (PRKCI (human)): 99.5%
residual activity (MINK1 (human)): 103%
residual activity (RPS6KA3 KD1 KD2 (human)): 107%
residual activity (BRSK2 (human)): 101%
residual activity (PNCK (human)): 100%
residual activity (EPHA2 (human)): 105%
residual activity (AURKB (human)): 102%
residual activity (PIM3 (human)): 114%
residual activity (WNK2 (human)): 101%
residual activity (LIMK1 (human)): 90.5%
residual activity (KDR (human)): 101%
residual activity (WNK3 (human)): 98.7%
residual activity (FRK (human)): 106%
residual activity (PRKD1 (human)): 96.8%
residual activity (NUAK1 (human)): 90.7%
residual activity (INSR (human)): 88.9%
residual activity (CLK1 (human)): 104%
residual activity (TGFBR2 (human)): 112%
residual activity (MARK4 (human)): 103%
residual activity (EPHA4 (human)): 104%
residual activity (BLK (human)): 100%
residual activity (CDK2 CCNE1 (human)): 91.9%
residual activity (MERTK (human)): 97.1%
residual activity (SYK (human)): 93.8%
residual activity (CAMKK1 (human)): 124%
residual activity (GRK6 (human)): 100%
residual activity (FGFR3 (human)): 96.5%
residual activity (CAMKK2 (human)): 101%
residual activity (DYRK4 (human)): 95.9%
residual activity (EPHB1 (human)): 105%
residual activity (DYRK1A (human)): 96.6%
residual activity (BMX (human)): 103%
residual activity (MAPKAPK2 (human)): 100%
residual activity (DCLK2 (human)): 98.5%
residual activity (ACVR1 (human)): 94.9%
residual activity (FLT3 (human)): 99%
residual activity (PAK4 (human)): 102%
residual activity (MAP3K10 (human)): 100%
residual activity (PTK6 (human)): 87.4%
residual activity (NTRK2 (human)): 107%
residual activity (PAK6 (human)): 100%

O=C(O)/C=C/c1cc(Br)c(Br)c(Br)c1Br
residual activity (EPHA3 (human)): 92.3%
residual activity (PRKCI (human)): 97.3%
residual activity (MINK1 (human)): 96%
residual activity (RPS6KA3 KD1 KD2 (human)): 41.2%
residual activity (BRSK2 (human)): 91.1%
residual activity (PNCK (human)): 95.1%
residual activity (EPHA2 (human)): 97.9%
residual activity (AURKB (human)): 88.5%
residual activity (PIM3 (human)): 17.7%
residual activity (WNK2 (human)): 93%
residual activity (LIMK1 (human)): 101%
residual activity (KDR (human)): 90.1%
residual activity (WNK3 (human)): 89.8%
residual activity (FRK (human)): 102%
residual activity (PRKD1 (human)): 88.9%
residual activity (NUAK1 (human)): 87.6%
residual activity (INSR (human)): 98.6%
residual activity (CLK1 (human)): 98.5%
residual activity (TGFBR2 (human)): 85.7%
residual activity (MARK4 (human)): 93.1%
residual activity (EPHA4 (human)): 88.8%
residual activity (BLK (human)): 95.1%
residual activity (CDK2 CCNE1 (human)): 89.4%
residual activity (MERTK (human)): 92.4%
residual activity (SYK (human)): 102%
residual activity (CAMKK1 (human)): 105%
residual activity (GRK6 (human)): 97.2%
residual activity (FGFR3 (human)): 94.9%
residual activity (CAMKK2 (human)): 79.6%
residual activity (DYRK4 (human)): 96.4%
residual activity (EPHB1 (human)): 95.2%
residual activity (DYRK1A (human)): 74.8%
residual activity (BMX (human)): 97%
residual activity (MAPKAPK2 (human)): 91.5%
residual activity (DCLK2 (human)): 94.8%
residual activity (ACVR1 (human)): 92.1%
residual activity (FLT3 (human)): 79%
residual activity (PAK4 (human)): 104%
residual activity (MAP3K10 (human)): 92.3%
residual activity (PTK6 (human)): 95%
residual activity (NTRK2 (human)): 98.2%
residual activity (PAK6 (human)): 110%
